Assay results as given in US8524455B2, “Methods and compositions related to TR4 ligand” (University of Rochester, priority 2009, dated 2013).

Experiments:
PPARγ/RXR = target: T1, PPARγ/RXR (Homo sapiens, UniProt P37231); test: CD36-luc luciferase reporter assay, PPARγ/RXR co-transfected into CV-1 cells; format: cell-based; details: 24 h
T1 construct: expressed in transfected cells; host or cells: CV-1
T1 sequence (P37231 29-505 limits assumed): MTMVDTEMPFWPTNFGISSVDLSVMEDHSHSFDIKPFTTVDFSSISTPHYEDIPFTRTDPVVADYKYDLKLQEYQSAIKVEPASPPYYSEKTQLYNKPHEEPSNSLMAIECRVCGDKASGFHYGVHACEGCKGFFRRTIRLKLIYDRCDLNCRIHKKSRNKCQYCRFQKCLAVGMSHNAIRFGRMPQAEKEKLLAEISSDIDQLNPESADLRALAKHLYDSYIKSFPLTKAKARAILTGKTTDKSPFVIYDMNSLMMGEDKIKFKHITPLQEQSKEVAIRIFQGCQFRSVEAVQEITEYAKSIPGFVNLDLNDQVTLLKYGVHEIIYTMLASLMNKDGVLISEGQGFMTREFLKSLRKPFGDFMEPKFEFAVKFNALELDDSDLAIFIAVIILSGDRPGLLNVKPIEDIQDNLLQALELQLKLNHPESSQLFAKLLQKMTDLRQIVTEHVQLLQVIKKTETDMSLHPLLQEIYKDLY
T1 sequence (P19793 1-462 partner): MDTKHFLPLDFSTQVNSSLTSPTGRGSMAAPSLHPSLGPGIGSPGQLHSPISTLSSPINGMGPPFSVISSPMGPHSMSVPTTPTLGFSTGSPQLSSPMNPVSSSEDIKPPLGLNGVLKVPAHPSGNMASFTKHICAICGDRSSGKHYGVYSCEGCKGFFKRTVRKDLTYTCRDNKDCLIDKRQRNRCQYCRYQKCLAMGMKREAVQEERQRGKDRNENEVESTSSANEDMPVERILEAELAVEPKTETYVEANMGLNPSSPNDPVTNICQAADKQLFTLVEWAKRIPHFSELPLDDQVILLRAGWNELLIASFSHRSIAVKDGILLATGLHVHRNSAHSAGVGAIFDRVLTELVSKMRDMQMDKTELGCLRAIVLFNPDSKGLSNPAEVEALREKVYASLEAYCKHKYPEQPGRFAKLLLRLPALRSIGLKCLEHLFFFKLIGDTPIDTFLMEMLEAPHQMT

TR4 [1] = target: T2, TR4 (Homo sapiens, UniProt P49116); test: CD36-luc luciferase reporter assay, TR4 co-transfected into CV-1 cells; format: cell-based; set-up: pCMX-TR4 plasmids consist of the full length human TR4 gene subcloned into pCMX vector; expressed in transfected cells; host or cells: CV-1; details: 24 h
T2 sequence (P49116 1-615 isoform P49116-2): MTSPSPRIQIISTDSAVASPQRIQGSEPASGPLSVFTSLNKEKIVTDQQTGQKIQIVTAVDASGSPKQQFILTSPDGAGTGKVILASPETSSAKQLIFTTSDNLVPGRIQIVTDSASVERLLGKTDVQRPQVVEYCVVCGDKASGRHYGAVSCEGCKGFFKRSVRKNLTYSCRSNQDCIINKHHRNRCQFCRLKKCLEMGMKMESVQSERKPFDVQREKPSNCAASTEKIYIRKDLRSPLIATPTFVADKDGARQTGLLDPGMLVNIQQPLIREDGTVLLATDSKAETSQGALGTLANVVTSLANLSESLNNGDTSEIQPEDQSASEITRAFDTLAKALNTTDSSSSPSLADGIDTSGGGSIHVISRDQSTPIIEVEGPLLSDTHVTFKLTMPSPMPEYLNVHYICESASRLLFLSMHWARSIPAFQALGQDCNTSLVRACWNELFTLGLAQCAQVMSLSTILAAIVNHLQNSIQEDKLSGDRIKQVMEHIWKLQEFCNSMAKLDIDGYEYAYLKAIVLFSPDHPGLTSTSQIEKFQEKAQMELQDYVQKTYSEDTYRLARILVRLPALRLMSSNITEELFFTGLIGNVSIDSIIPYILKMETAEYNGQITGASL
Experimental: After 24 h, cells were harvested for Luciferase activity. The relative luciferase activity was calculated while setting pCMX-TR4 in vehicle control as 1. (FIG. 6B) Protease protective peptide mapping were analyzed in liganded-PPARγ and TR4. […] The reaction was stopped by adding 2×SDS-sample buffer. The protease digestion pattern was resolved by gel electrophoresis in 12.5% (for PPARγ), and 16% (for TR4) SDS-PAGE. […] After 24 h, cells were harvested for Luciferase activity. The relative luciferase activity was calculated while setting pCMX-TR4 in vehicle control as 1.
Mouse macrophage RAW 264.7 cells, obtained from ATCC, were cultured in DMEM medium supplemented with 8% fetal bovine serum and 100 µg/ml penicillin-streptomycin and maintained on the petri-dishes. […] After 24 h, cells were harvested for luciferase assays.

TR4 [2] = target: T2, TR4; test: Limited proteolysis (protease protective peptide mapping) of [35S]-TR4; format: binding; set-up: pCMX-TR4 plasmids consist of the full length human TR4 gene subcloned into pCMX vector; expressed in transfected cells; host or cells: H1299; details: incubated 15 min, trypsin 0.25 and 2.5 g/ml 10 min; compared to DMSO control
Experimental: (FIG. 6A) PUFAs metabolites induced PPAR- and TR4-mediated CD36 activity. […] After 24 h, cells were harvested for Luciferase activity. The relative luciferase activity was calculated while setting pCMX-TR4 in vehicle control as 1. (FIG. 6B) Protease protective peptide mapping were analyzed in liganded-PPARγ and TR4. […] The reaction was stopped by adding 2×SDS-sample buffer. The protease digestion pattern was resolved by gel electrophoresis in 12.5% (for PPARγ), and 16% (for TR4) SDS-PAGE. […] After 24 h, cells were harvested for Luciferase activity. The relative luciferase activity was calculated while setting pCMX-TR4 in vehicle control as 1.

[3] = 1 and 20 µM in DMSO, compared with AA and EPA
[4] = 1, 10, 50, 100 and 250 µM in BSA

| SMILES | PPAR/RXR-mediated CD36 expression (CD36-luc luciferase activity) (PPARγ/RXR; [3]) | TR4-mediated CD36 expression (CD36-luc luciferase activity) (TR4 [1]; [3]) | Protease digestion pattern of ligand-bound TR4 (TR4 [2]) | PPAR/RXR-mediated CD36 expression (CD36-luc luciferase activity) (PPARγ/RXR; [4]) | TR4-mediated CD36 expression (CD36-luc luciferase activity) (TR4 [1]; [4]) |
| --- | --- | --- | --- | --- | --- |
| CCCCCC(O)/C=C/C=C\CCCCCCCC(=O)O (centres unmarked) [13-HODE] | much better induction | much better induction | several changed proteolysis resisting fragments | – | – |
| CCCCC[C@H](O)/C=C/C=C\C/C=C\C/C=C\CCCC(=O)O [15-HETE] | much better induction | much better induction | several changed proteolysis resisting fragments | – | – |
| CCCCC/C=C\C/C=C\C/C=C\C/C=C\CCCC(=O)O [AA, arachidonic acid] | – | – | – | mildly induced | mildly induced |
